The values that follow come from patent US11865506B2, “Pyraclostrobin microcapsule based on sodium alginate and preparation method” (ANHUI AGRICULTURAL UNIVERSITY, priority 2022, dated 2024).

The structures appear in SMILES notation. In brackets after ≈: the same amount, converted by molar mass. Like-named read-outs stand apart in the source and are kept apart here.

The conditions of series [1]: organic solvent; cited from earlier work.
The conditions of series [2]: 25° C., cited from earlier work.
Series [3] can be described thus: Cold and hot storage stability. Type of series: physicochemical. The following applies: for Stability / decomposition rate on cold storage: stored at 4° C. and −20° C. The text has this: (§1) The cold storage stability, hot storage stability, and photostability are experimented respectively.
Series [4] has as its system Fusarium pseudograminearum. Nature of the series: microbe, parasite or virus in culture. The format is cell-based.
Experimental: By mycelium growth rate method, the fungicidal activity of pyraclostrobin original drug and the prepared pyraclostrobin SA microcapsules against Fusarium pseudograminearum is determined, and the release rule of the microcapsules in the culture medium is determined.
Inclined experiment tube storage method: inoculate the strain of Fusarium pseudograminearum on a PDA plate for activation treatment, place the plate in a constant temperature incubator at 25° C. after sealing, and incubate for 3 days. Pick out the edge bacteria, transfer to a PDA slant experiment tube, and cultivate at a constant temperature at 25° C. until the colonies cover the surface of the slant, then put the experiment tube into a 4° C. refrigerator for storage until use. […]
Activate the Fusarium pseudograminearum on a drug-free PDA plate in advance, after culturing at 25° C. for 3 days, beat the fungus cake along the edge of the colony, pick the fungus cake with an inoculation needle every 0, 4, 8, 12, and 16 days and transfer it reversely to the center of the drug-containing medium; seal and store the culture dish, and place in a constant temperature incubator at 25° C. for cultivation. After each cultivation for 3 days, the diameter of the colony is measured by the cross method, and the average value is used to calculate the antibacterial rate as follows. […]
A short description of series [5]: Photostability under ultraviolet light. The format is physicochemical.
Source text: as §1
Determination of the active ingredient residual concentration of the original drug and microcapsules under the same ultraviolet light conditions, the results are shown in Table 15.

For `CC(C)=O` [Acetone], in series [1], the Toxicity result is on record as “Low”.
`COC(=O)N(OC)c1ccccc1COc1ccn(-c2ccc(Cl)cc2)n1` [Original drug, pyraclostrobin]: the “Solubility to original drug” value in series [2] (in acetone) is reported as at least 65 g/100 mL; in series [2] (in ethanol), at least 10 g/100 mL; in series [2] (in ethyl acetate), at least 65 g/100 mL; in series [2] (in methanol), at least 10 g/100 mL. Also, the Decomposition rate in series [3] (storage at 25° C. for 30 days) is on record as 2.2%; in series [3] (storage at 54° C. for 30 days) it was 40.25%. Moreover, the results for the “Stability / decomposition rate on cold storage” value in series [3] and in series [3] (listed as pyraclostrobin original drug) were “better stability” and “extremely low”, respectively. It took 0.097 µg/mL (≈ 0.25 µM) to reach a half-maximal effect in series [4] (EC50). The Photolysis rate constant in series [5] (Ct = C0 × e^−kt) is 0.03. For the same compound, the “Residual concentration of the active ingredient” value in series [5] (final time of 60 minutes) was 1.384 µg/mL. This compound also gave a Photolysis half life in series [5] (first-level kinetic equation) of 21.01 min. Moreover, the half-life (usually the time needed for the level to fall by half in the phase considered) at 9.986 μg/mL in series [5] (first-level kinetic equation, read-out: Photolysis half life) came out at 21 min.
As for `CCOC(C)=O` [Ethyl acetate], in series [1], the Toxicity entry was “Low”.
